Experimental data from patent US20160279187A1, “CALPAIN INHIBITORS FOR IBD AND COLORECTAL CANCER TREATMENT” (UNIVERSITY OF HAWAII, priority 2013, published 2016).
Where a SMILES comes first, the peptide text is derived from it. The star is where a group is joined. Cbz = O=C(OCc1ccccc1)*; CH2F = FC*

Assays:
[1] = system: calpain activity in the colon tissue; experiment: DSS dose-response, calpain activity in colon tissue; format: in vivo, mice; details: 2% DSS 4 days
Method: (§1) Bone marrow derived macrophages (BMDM) were prepared as previously described by methods known to those skilled in the art. On day 5 of culture, 2×10^6 BMDM were seeded in 6-well plates and the following day were primed for 18 h with TNFα (20 ng/mL), followed by 1 h stimulation with E. faecalis (1 μg/mL; ATCC). Stimulation with E. faecalis was conducted in the presence of the zLLY-CH2F calpain-2 inhibitor (20 μg/mL) or DMSO as a control. Media was removed from treated BMDM, centrifuged at 300×g for 5 min and supernatent analyzed using the Cytometric Bead Array Mouse Inflammation Kit (BD Biosciences, San Jose, Calif.). Cytokine data were analyzed using Flowjo software (Ashland, Oreg.) and GraphPad Prism version 4.0 (GraphPad, La Jolla, Calif.). Cell pellets were lysed and analyzed for IκB and NFκB by Western blot as previously described (Miyazaki, T. et al. Journal of Atherosclerosis and Thrombosis 20, 228-237, 2013). […] Each day 4 wells were quantified using Celltiter MTS reagent (Promega) and the resulting signal was used to generate a proliferation curve. Calpain activity was measured using a Calpain activity assay kit (BioVision, Inc., Milpitas, Calif.) as previously described. Colons were harvested on day 4 and calpain activity measured. […]

[2] = system: Bone marrow derived macrophages (BMDM); experiment: cytokine production by activated bone marrow derived macrophages (CBA); format: cell-based, mouse; details: 20 μg/ml; TNFα primed, E. faecalis activated BMDM
Method: Bone marrow derived macrophages (BMDM) were prepared as previously described by methods known to those skilled in the art. On day 5 of culture, 2×10^6 BMDM were seeded in 6-well plates and the following day were primed for 18 h with TNFα (20 ng/mL), followed by 1 h stimulation with E. faecalis (1 μg/mL; ATCC). Stimulation with E. faecalis was conducted in the presence of the zLLY-CH2F calpain-2 inhibitor (20 μg/mL) or DMSO as a control. Media was removed from treated BMDM, centrifuged at 300×g for 5 min and supernatent analyzed using the Cytometric Bead Array Mouse Inflammation Kit (BD Biosciences, San Jose, Calif.). Cytokine data were analyzed using Flowjo software (Ashland, Oreg.) and GraphPad Prism version 4.0 (GraphPad, La Jolla, Calif.). Cell pellets were lysed and analyzed for IκB and NFκB by Western blot as previously described (Miyazaki, T. et al. Journal of Atherosclerosis and Thrombosis 20, 228-237, 2013). In other experiments, mouse CT-26.WT and human HT-29 colon cancer cells were plated in 96-well plates at 10^3 cells/well with 20 μg/mL inhibitor or DMSO, followed by analyses for IκB and NFκB by Western blot as described above for BMDM. For proliferation assays, fresh media with 20 μg/mL inhibitor or DMSO were added every 2 d. Each day 4 wells were quantified using Celltiter MTS reagent (Promega) and the resulting signal was used to generate a proliferation curve. Calpain activity was measured using a Calpain activity assay kit (BioVision, Inc., Milpitas, Calif.) as previously described. Colons were harvested on day 4 and calpain activity measured. Enzyme-linked immunosorbant assay (ELISA) analyses of cecum hemoglobin has been previously described (Miyazaki, T. et al. Journal of Atherosclerosis and Thrombosis 20, 228-237, 2013).
To determine if a similar mechanism may be contributing to the effect of the calpain-2 inhibition in the DSS model of colitis, macrophages were analyzed for NFκB activation and inflammatory cytokine secretion. Bone marrow derived macrophages were primed […] with TNFα (20 ng/ml) and activated with E. faecalis (1 μg/ml) for 1 h in the presence or absence of calpain-2 inhibitor (20 μg/ml). Supernatants were evaluated for a panel of cytokines including IFNγ, TNFα, IL-6, and MCP-1, IL-10, and IL-12. Real-time PCR was performed on total RNA extracted from colon tissues to access levels of cytokines. Media was collected from wells and cytokines assessed by CBA kit (BD Biosciences). For IκB blotting cells were lysed and SDS-PAGE was performed. Membranes were stained with anti-IκB (Cell Signalling) and anti-βactin (Santa Cruz). For NfκB blotting an NFκB Activation Kit (Five Photon) was used to isolate nuclear fractions. These fractions were transferred using SDS-PAGE. The membranes were stained with anti-NFκB (Santa Cruz) or anti-TATA (Abcam). Data are mean±SE (n=3) and represent results from three independent experiments. *p<0.05; one way ANOVA followed by Tukey post-test. […] Importantly, those cytokines most affected by the calpain-2 are regulated by NFκB.

[3] = system: CT-26 WT mouse colon cancer cells; experiment: proliferation assay (MTS), CT-26.WT; format: cell-based; details: 20 μg/ml, vs DMSO
Method: as §1

[4] = molecular target: cathespin L (Homo sapiens, UniProt P07711); details: off-target protein; Li et al., Biochemistry 2006; cited from earlier work
Chain of cathespin L (P07711 114-333): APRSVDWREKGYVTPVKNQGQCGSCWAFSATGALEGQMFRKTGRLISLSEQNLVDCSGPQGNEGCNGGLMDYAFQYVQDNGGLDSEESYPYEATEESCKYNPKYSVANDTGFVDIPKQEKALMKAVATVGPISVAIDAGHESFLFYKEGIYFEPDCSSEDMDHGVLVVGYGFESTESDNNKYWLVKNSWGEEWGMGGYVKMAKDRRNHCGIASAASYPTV

CC(C)C[C@H](NC(=O)OCc1ccccc1)C(=O)N[C@@H](CC(C)C)C(=O)N[C@@H](Cc1ccc(O)cc1)C(=O)CF [zLLY-CH2F, Z-LLY-CH2F] (Cbz-Leu-Leu-Tyr-CH2F)
total calpain activity reduced by ([1]; daily i.p. injection, 0.75 mg/kg): 50% | dose at which the maximum amount of calpain activity inhibition was achieved ([1]; i.p., 0-1.25 mg/kg tested): 0.75 mg/kg | production of IFNγ [2]: significant decrease | production of IL-6 [2]: significant decrease | production of IL-10 [2]: not significantly affected | production of IL-12 [2]: not significantly affected | production of MCP-1 [2]: significant decrease | production of TNFα [2]: significant decrease | proliferation [3]: reduction | rate constant k2, inhibition of cathespin L [4]: 680,000 M^−1s^−1
